Source: patent US6090828A, “5-aryleheteroarylalkyl-1,3,5-trisubstituted-1,2,4-triazole compounds for treatment of circulatory disorders” (priority 1997, dated 2000)
Read-outs that look alike come from different tables or passages of the source.

How the values were obtained:
[1] = biological target: T1, rabbit aortic rings (Oryctolagus cuniculus, UniProt P34976); test: Assay B: In Vitro Vascular Smooth Muscle Response for AII; parameters: species or system rabbit (male New Zealand white); settings: rabbit aorta rings, two rabbits per antagonist, antagonist 10^-5 M, 5 minutes, AII contraction, Schild
T1 construct: The thoracic aorta was removed, cleaned of adherent fat and connective tissue and then cut into 3-mm ring segments; from tissue; host or cells: rabbit thoracic aorta rings, endothelium removed
T1 sequence (P34976 1-359): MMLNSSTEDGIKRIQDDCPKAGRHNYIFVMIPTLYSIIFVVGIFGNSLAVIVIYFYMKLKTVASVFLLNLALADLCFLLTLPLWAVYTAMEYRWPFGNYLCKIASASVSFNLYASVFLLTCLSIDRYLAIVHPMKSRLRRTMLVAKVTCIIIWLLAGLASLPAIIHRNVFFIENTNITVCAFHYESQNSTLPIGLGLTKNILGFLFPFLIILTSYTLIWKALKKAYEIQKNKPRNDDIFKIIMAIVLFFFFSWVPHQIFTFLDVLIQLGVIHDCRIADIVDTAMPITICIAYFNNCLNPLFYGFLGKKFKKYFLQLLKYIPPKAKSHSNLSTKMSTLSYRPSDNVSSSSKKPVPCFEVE
Method: The compounds of the invention were tested for antagonist activity in rabbit aortic rings. Male New Zealand white rabbits (2-2.5 kg) were sacrificed using an overdose of pentobarbital and exsanguinated via the carotid arteries. The thoracic aorta was removed, cleaned of adherent fat and connective tissue and then cut into 3-mm ring segments. The endothelium was removed from the rings by gently sliding a rolled-up piece of filter paper into the vessel lumen. The rings were then mounted in a water-jacketed tissue bath, maintained at 37° C., between moveable and fixed ends of a stainless steel wire with the moveable end attached to an FT03 Grass transducer coupled to a Model 7D Grass Polygraph for recording isometric force responses. […] The preparations were equilibrated for one hour before approximately one gram of passive tension was placed on the rings. Angiotensin II concentration-response curves were then recorded (3×10^-10 to 1×10^-5 M). Each concentration of AII was allowed to elicit its maximal contraction, and then AII was washed out repeatedly for 30 minutes before rechallenging with a higher concentration of AII. Aorta rings were exposed to the test antagonist at 10^-5 M for 5 minutes before challenging with AII. Adjacent segments of the same aorta ring were used for all concentration-response curves in the presence or absence of the test antagonist. […] The pA2 value is the concentration of the antagonist which increases the EC50 value for AII by a factor of two. Each test antagonist was evaluated in aorta rings from two rabbits.

[2] = biological target: smooth muscle angiotensin II receptor; test: Assay A: Angiotensin II Binding Activity; settings: 50% displacement of specifically bound 125I-AII; rat uterine membranes; pH 7.5; 25° C., 60 min
Method: Compounds of the invention were tested for ability to bind to the smooth muscle angiotensin II receptor using a rat uterine membrane preparation. […] Rat uterine membranes were prepared from fresh tissue. All procedures were carried out at 4° C. Uteri were stripped of fat and homogenized in phosphate-buffered saline at pH 7.4 containing 5 mM EDTA. The homogenate was centrifuged at 1500×g for 20 min., and the supernatant was recentrifuged at 100,000×g for 60 min. The pellet was resuspended in buffer consisting of 2 mM EDTA and 50 mM Tris-HCl (pH 7.5) to a final protein concentration of 4 mg/ml. […] The reaction was initiated by the addition of membrane protein and the mixture was incubated at 25° C. for 60 min. The incubation was terminated with ice-cold 50 mM Tris-HCl (pH 7.5) and the mixture was filtered to separate membrane-bound labelled peptide from the free ligand. The incubation tube and filter were washed with ice-cold buffer. Filters were assayed for radioactivity in a Micromedic gamma counter. Nonspecific binding was defined as binding in the presence of 10 μM of unlabelled AII. Specific binding was calculated as total binding minus nonspecific binding. […] Binding data were analyzed by a nonlinear least-squares curve fitting program.

[3] = read-out: pA2 (first of two values) (converted)
[4] = read-out: pA2 (second of two values) (converted)

| Molecule | Kb [1, 3] | Kb [1, 4] | IC50 [2] |
| --- | --- | --- | --- |
| CCCCCn1nc(CCCC)nc1Cc1ccc(-c2ccccc2-c2nnn[nH]2)nc1 [Example 6, 5-[2-[5-[(1-pentyl-3-butyl-1H-1,2,4-triazol-5-yl)methyl]-2-pyridinyl]phenyl]-1H-tetrazole] | 0.0251 µM | 0.0724 µM | 0.086 µM |
| CCCCn1nc(C(C)(F)F)nc1Cc1ccc(-c2ccccc2-c2nnn[nH]2)nc1 [Example 17, 5-[2-[5-[[1-butyl-3-(1,1-difluoroethyl)-1H-1,2,4-triazol-5-yl]methyl]-2-pyridinyl]phenyl]-1H-tetrazole] | 0.0269 µM | 0.0182 µM | 0.16 µM |
| CCCn1nc(C(F)F)nc1Cc1ccc(-c2ccccc2-c2nnn[nH]2)nc1 [Example 13, 5-[2-[5-[(1-propyl-3-difluoromethyl-1H-1,2,4-triazol-5-yl)methyl]-2-pyridinyl]phenyl]-1H-tetrazole] | 0.617 µM | 0.282 µM | 0.38 µM |
| CCCn1nc(C(C)(F)F)nc1Cc1ccc(-c2ccccc2-c2nnn[nH]2)nc1 [Example 16, 5-[2-[5-[[1-propyl-3-(1,1-difluoroethyl)-1H-1,2,4-triazol-5-yl]methyl]-2-pyridinyl]phenyl]-1H-tetrazole] | 0.126 µM | 0.0661 µM | 0.41 µM |
| CCCCn1nc(C(=O)NC)nc1Cc1ccc(-c2ccccc2-c2nnn[nH]2)nc1 [Example 23, 5-[2-[5-[[1-butyl-3-(N-methylamido)-1H-1,2,4-triazol-5-yl]methyl]-2-pyridinyl]phenyl]-1H-tetrazole] | 0.0708 µM | 0.0912 µM | 0.07 µM |
| CCCCn1nc(C(F)CCC)nc1Cc1ccc(-c2ccccc2-c2nnn[nH]2)nc1 (stereo not shown) [Example 12, 5-[2-[5-[[1-butyl-3-(1-fluorobutyl)-1H-1,2,4-triazol-5-yl]methyl]-2-pyridinyl]phenyl]-1H-tetrazole] | – | – | 0.028 µM |
| 5-[2-[5-[[1-ethyl-3-(1,1-difluoroethyl)-1H-1,2,4-triazol-5-yl]methyl]-2-pyridinyl]phenyl]-1H-tetrazole [Example 15] | – | – | 1.7 µM |
| CCCCn1nc(C(=O)NC(C)(C)C)nc1Cc1ccc(-c2ccccc2-c2nnn[nH]2)nc1 [Example 24, 5-[2-[5-[[1-butyl-3-(N-tertbutylamido)-1H-1,2,4-triazol-5-yl]methyl]-2-pyridinyl]phenyl]-1H-tetrazole] | 0.0324 µM | 0.12 µM | 0.09 µM |
| CCCCn1nc(C=O)nc1Cc1ccc(-c2ccccc2-c2nnn[nH]2)nc1 [Example 30, 5-[2-[5-[[1-butyl-3-formyl-1H-1,2,4-triazol-5-yl]methyl]-2-pyridinyl]phenyl]-1H-tetrazole] | 0.214 µM | – | 0.31 µM |
| CCCCn1nc(C(F)F)nc1Cc1ccc(-c2ccccc2-c2nnn[nH]2)nc1 [Example 14, 5-[2-[5-[(1-butyl-3-difluoromethyl-1H-1,2,4-triazol-5-yl)methyl]-2-pyridinyl]phenyl]-1H-tetrazole] | 0.038 µM | 0.178 µM | 0.42 µM |
| CCCCn1nc(C(C)(OC)OC)nc1Cc1ccc(-c2ccccc2-c2nnn[nH]2)nc1 [Example 33, 5-[2-[5-[[1-butyl-3-(1,1-dimethoxyethyl)-1H-1,2,4-triazol-5-yl]methyl]-2-pyridinyl]phenyl]-1H-tetrazole] | – | – | 0.059 µM |
| CCCCc1nc(Cc2ccc(-c3ccccc3-c3nnn[nH]3)nc2)n(CC(CC)CC)n1 [Example 8, 5-[2-[5-[[1-(2-ethylbutyl)-3-butyl-1H-1,2,4-triazol-5-yl]methyl]-2-pyridinyl]phenyl]-1H-tetrazole] | – | 0.603 µM | 0.53 µM |
| CCCCn1nc(C(=O)CCC)nc1Cc1ccc(-c2ccccc2-c2nnn[nH]2)nc1 [Example 11, 5-[2-[5-[[1-butyl-3-(1-oxobutyl)-1H-1,2,4-triazol-5-yl]methyl]-2-pyridinyl]phenyl]-1H-tetrazole] | 0.0135 µM | 0.0195 µM | 0.064 µM |
| CCCn1nc(C(F)(F)CC)nc1Cc1ccc(-c2ccccc2-c2nnn[nH]2)nc1 [Example 18, 5-[2-[5-[[1-propyl-3-(1,1-difluoropropyl)-1H-1,2,4-triazol-5-yl]methyl]-2-pyridinyl]phenyl]-1H-tetrazole] | 0.0832 µM | 0.0776 µM | 0.37 µM |
| CCCCc1nc(Cc2ccc(-c3ccccc3-c3nnn[nH]3)nc2)n(CC(C)(C)C)n1 [Example 35, 5-[2-[5-[(1-neopentyl-3-butyl-1H-1,2,4-triazol-5-yl)methyl]-2-pyridinyl]phenyl]-1H-tetrazole] | 0.166 µM | – | 1.1 µM |
| CCCn1nc(C(OC)OC)nc1Cc1ccc(-c2ccccc2-c2nnn[nH]2)nc1 [Example 25, 5-[2-[5-[[1-propyl-3-dimethoxymethyl-1H-1,2,4-triazol-5-yl]methyl]-2-pyridinyl]phenyl]-1H-tetrazole] | 0.0513 µM | 0.0955 µM | 0.18 µM |
| CCCCn1nc(C(F)(F)CC)nc1Cc1ccc(-c2ccccc2-c2nnn[nH]2)nc1 [Example 19, 5-[2-[5-[[1-butyl-3-(1,1-difluoropropyl)-1H-1,2,4-triazol-5-yl]methyl]-2-pyridinyl]phenyl]-1H-tetrazole] | 0.0204 µM | 0.0263 µM | 0.42 µM |
| CCCCn1nc(/C=C/c2cccs2)nc1Cc1ccc(-c2ccccc2-c2nnn[nH]2)nc1 [Example 5, 5-[2-[5-[[1-butyl-3-[2-(2-thienyl)ethenyl]-1H-1,2,4-triazol-5-yl]methyl]-2-pyridinyl]phenyl]-1H-tetrazole] | 0.00646 µM | 0.00417 µM | 0.097 µM |
| CCCCn1nc(CCc2ccccc2)nc1Cc1ccc(-c2ccccc2-c2nnn[nH]2)nc1 [Example 2, 5-[2-[5-[[1-butyl-3-(2-phenylethyl)-1H-1,2,4-triazol-5-yl]methyl]-2-pyridinyl]phenyl]-1H-tetrazole] | 0.0174 µM | 0.0107 µM | 0.017 µM |
| CCCCCc1nc(Cc2ccc(-c3ccccc3-c3nnn[nH]3)nc2)n(CCCC)n1 [Example 7, 5-[2-[5-[(1-butyl-3-pentyl-1H-1,2,4-triazol-5-yl)methyl]-2-pyridinyl]phenyl]-1H-tetrazole] | 0.00933 µM | 0.0219 µM | 0.078 µM |
| CCCCn1nc(C(OC(C)C)OC(C)C)nc1Cc1ccc(-c2ccccc2-c2nnn[nH]2)nc1 [Example 29, 5-[2-[5-[[1-butyl-3-diisopropoxymethyl-1H-1,2,4-triazol-5-yl]methyl]-2-pyridinyl]phenyl]-1H-tetrazole] | 0.0288 µM | 0.0339 µM | 0.088 µM |
| CCCCn1nc(C(C)=O)nc1Cc1ccc(-c2ccccc2-c2nnn[nH]2)nc1 [Example 34, 5-[2-[5-[[1-butyl-3-(1-oxoethyl)-1H-1,2,4-triazol-5-yl]methyl]-2-pyridinyl]phenyl]-1H-tetrazole] | – | – | 0.39 µM |
| CCCCn1nc(C(OCCC)OCCC)nc1Cc1ccc(-c2ccccc2-c2nnn[nH]2)nc1 [Example 28, 5-[2-[5-[[1-butyl-3-dipropoxymethyl-1H-1,2,4-triazol-5-yl]methyl]-2-pyridinyl]phenyl]-1H-tetrazole] | 0.0389 µM | 0.0141 µM | 0.026 µM |
